Measured values reported in ChEMBL document CHEMBL1909046, “DrugMatrix in vitro pharmacology data”.

What was measured:
[1] = target: T1, Alpha-1A adrenergic receptor (Rattus norvegicus, UniProt P43140); assay: DRUGMATRIX: Alpha-1A adrenergic receptor radioligand binding (ligand: prazosin); type: cell membranes, Wistar, Submaxillary gland, Membrane; conditions: Not Active = under 50% inhibition at 10 µM
T1 sequence (P43140 whole entry): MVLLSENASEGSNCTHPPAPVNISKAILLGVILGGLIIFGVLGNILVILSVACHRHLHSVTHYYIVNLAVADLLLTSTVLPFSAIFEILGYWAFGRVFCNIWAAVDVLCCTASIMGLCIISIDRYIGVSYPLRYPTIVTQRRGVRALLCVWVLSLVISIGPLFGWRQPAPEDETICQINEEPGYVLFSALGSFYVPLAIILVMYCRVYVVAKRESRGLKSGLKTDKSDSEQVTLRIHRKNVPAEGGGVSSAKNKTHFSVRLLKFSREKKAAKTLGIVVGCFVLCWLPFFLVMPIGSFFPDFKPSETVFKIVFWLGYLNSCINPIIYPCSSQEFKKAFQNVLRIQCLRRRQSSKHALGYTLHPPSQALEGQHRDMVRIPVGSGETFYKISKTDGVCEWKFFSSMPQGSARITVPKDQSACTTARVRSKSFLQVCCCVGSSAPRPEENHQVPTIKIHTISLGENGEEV

Calcitonin receptor = target: T2, Calcitonin receptor (Homo sapiens, UniProt P30988); type: cell membranes, Membrane; conditions: t47d; also: in other assays of this panel Not Active means under 50% inhibition at 10 µM
T2 sequence (P30988 whole entry): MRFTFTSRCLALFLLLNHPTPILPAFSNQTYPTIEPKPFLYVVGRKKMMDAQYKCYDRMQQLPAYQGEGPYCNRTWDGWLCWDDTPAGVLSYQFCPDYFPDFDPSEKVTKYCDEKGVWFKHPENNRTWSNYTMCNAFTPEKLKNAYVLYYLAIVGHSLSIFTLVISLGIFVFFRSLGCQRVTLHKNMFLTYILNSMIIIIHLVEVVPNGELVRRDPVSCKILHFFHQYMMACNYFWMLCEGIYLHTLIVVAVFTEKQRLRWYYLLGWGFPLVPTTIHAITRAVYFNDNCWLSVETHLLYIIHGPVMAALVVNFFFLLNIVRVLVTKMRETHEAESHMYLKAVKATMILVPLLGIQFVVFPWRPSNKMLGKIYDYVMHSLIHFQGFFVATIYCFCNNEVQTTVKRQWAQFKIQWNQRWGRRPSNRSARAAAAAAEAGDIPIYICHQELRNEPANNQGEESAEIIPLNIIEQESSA

Substance-P receptor = Substance-P receptor (Homo sapiens, UniProt P25103); type: cell membranes, Membrane; conditions: cho; also: in other assays of this panel Not Active means under 50% inhibition at 10 µM
Sequence of Substance-P receptor (P25103 whole entry): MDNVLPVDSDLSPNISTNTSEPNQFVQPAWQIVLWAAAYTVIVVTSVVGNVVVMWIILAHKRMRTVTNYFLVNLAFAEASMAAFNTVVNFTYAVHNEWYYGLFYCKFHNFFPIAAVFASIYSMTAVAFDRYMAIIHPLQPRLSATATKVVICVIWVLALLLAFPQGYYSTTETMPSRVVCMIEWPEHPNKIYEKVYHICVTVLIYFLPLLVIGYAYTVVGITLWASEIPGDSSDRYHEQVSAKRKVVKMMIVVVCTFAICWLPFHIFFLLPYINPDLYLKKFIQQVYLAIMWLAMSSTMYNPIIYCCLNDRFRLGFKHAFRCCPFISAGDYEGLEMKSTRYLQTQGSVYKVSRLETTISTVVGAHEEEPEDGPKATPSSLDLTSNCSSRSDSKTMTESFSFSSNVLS

[2] = DRUGMATRIX: Phosphodiesterase PDE3 enzyme inhibition (substrate: [3H]cAMP + cAMP); type: tissue-based, Homo sapiens; conditions: platelet; Not Active = under 50% inhibition at 10 µM
[3] = target: T3, Angiotensin-converting enzyme (Oryctolagus cuniculus, UniProt P12822); type: tissue-based, Lung;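 also: enzymatic inhibition of angiotensin-converting enzyme measured with FAPGG as the substrate; in other assays of this panel Not Active means under 50% inhibition at 10 µM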
T3 sequence (P12822 whole entry): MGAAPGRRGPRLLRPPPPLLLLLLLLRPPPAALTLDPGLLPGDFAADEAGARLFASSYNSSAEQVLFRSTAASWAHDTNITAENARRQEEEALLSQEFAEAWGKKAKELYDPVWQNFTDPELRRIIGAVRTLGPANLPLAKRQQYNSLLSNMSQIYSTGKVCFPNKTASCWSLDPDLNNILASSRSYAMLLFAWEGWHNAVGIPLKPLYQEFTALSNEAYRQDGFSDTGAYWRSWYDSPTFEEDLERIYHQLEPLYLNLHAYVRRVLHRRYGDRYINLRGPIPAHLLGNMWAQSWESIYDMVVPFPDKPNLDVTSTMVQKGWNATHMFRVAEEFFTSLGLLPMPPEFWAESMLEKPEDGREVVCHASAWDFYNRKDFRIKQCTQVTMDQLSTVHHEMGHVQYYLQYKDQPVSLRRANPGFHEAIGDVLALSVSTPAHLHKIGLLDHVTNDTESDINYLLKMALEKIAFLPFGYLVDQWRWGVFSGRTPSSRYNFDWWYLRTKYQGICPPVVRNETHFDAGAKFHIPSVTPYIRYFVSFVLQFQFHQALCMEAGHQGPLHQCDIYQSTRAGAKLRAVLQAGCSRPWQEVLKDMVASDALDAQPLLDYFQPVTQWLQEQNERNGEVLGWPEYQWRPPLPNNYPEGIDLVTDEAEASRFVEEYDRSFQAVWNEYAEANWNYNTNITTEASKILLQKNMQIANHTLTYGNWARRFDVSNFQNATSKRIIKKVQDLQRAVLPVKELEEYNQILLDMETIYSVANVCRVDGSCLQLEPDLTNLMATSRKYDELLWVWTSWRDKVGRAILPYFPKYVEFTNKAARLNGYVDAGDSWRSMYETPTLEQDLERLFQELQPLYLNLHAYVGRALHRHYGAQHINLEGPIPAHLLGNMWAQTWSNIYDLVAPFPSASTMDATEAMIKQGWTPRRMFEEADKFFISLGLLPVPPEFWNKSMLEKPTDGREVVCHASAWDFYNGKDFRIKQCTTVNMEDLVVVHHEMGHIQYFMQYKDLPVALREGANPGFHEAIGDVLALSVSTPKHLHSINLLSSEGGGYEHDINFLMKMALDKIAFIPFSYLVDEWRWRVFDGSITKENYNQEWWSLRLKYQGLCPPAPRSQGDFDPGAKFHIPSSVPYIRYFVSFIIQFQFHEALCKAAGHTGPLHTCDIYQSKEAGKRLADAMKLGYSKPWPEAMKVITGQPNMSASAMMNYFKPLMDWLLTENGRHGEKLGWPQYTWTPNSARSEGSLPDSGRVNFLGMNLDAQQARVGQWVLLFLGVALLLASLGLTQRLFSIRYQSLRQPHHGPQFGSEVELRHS

Neutrophil elastase = target: T4, Neutrophil elastase (Homo sapiens, UniProt P08246); type: tissue-based;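 also: inhibition of neutrophil elastase enzyme activity, measured with a p-nitroanilide-linked peptide substrate; in other assays of this panel Not Active means under 50% inhibition at 10 µM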
T4 sequence (P08246 whole entry): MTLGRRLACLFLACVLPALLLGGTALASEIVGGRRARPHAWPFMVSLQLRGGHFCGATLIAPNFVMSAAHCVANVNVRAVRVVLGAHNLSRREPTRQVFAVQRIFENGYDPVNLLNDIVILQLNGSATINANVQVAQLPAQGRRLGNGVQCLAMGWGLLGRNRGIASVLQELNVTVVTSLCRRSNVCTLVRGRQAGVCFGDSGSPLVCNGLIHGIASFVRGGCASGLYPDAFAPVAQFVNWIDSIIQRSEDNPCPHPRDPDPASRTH

C=C(C)[C@H]1Cc2c(ccc3c2O[C@@H]2COc4cc(OC)c(OC)cc4[C@@H]2C3=O)O1 [ROTENONE]
Not Active: IC50 [1] | IC50 (Calcitonin receptor) | IC50 (Substance-P receptor) | IC50 [2] | Ki [2] | IC50 [3] | IC50 (Neutrophil elastase)

C#CCN(C)[C@H](C)Cc1ccccc1 [SELEGILINE]
Not Active: IC50 [1] | IC50 (Calcitonin receptor) | IC50 (Substance-P receptor) | IC50 [2] | Ki [2] | IC50 [3] | IC50 (Neutrophil elastase)

CO[C@H]1C[C@@H]2CC[C@@H](C)[C@@](O)(O2)C(=O)C(=O)N2CCCC[C@H]2C(=O)O[C@H]([C@H](C)C[C@@H]2CC[C@@H](O)[C@H](OC)C2)CC(=O)[C@H](C)/C=C(\C)[C@@H](O)[C@@H](OC)C(=O)[C@H](C)C[C@H](C)/C=C/C=C/C=C/1C [SIROLIMUS]
Not Active: IC50 [1] | IC50 (Calcitonin receptor) | IC50 (Substance-P receptor) | IC50 [2] | Ki [2] | IC50 [3] | IC50 (Neutrophil elastase)

CN[C@@H]1[C@H](O)[C@H](NC)[C@H]2O[C@@]3(O)C(=O)C[C@@H](C)O[C@H]3O[C@@H]2[C@H]1O [SPECTINOMYCIN]
Not Active: IC50 [1] | IC50 (Calcitonin receptor) | IC50 (Substance-P receptor) | IC50 [2] | Ki [2] | IC50 [3] | IC50 (Neutrophil elastase)

Nc1ccc(S(=O)(=O)Nc2ncccn2)cc1 [SULFADIAZINE]
Not Active: IC50 [1] | IC50 (Calcitonin receptor) | IC50 (Substance-P receptor) | IC50 [2] | Ki [2] | IC50 [3] | IC50 (Neutrophil elastase)

COc1ncnc(NS(=O)(=O)c2ccc(N)cc2)c1OC [SULFADOXINE]
Not Active: IC50 [1] | IC50 (Calcitonin receptor) | IC50 (Substance-P receptor) | IC50 [2] | Ki [2] | IC50 [3] | IC50 (Neutrophil elastase)

Nc1ccc(S(=O)(=O)Nc2nccs2)cc1 [SULFATHIAZOLE]
Not Active: IC50 [1] | IC50 (Calcitonin receptor) | IC50 (Substance-P receptor) | IC50 [2] | Ki [2] | IC50 [3] | IC50 (Neutrophil elastase)

C[C@]12CC[C@H]3[C@@H](CCC4=CC(=O)CC[C@@]43C)[C@@H]1CC[C@@H]2O [TESTOSTERONE]
Not Active: IC50 [1] | IC50 (Calcitonin receptor) | IC50 (Substance-P receptor) | IC50 [2] | Ki [2] | IC50 [3] | IC50 (Neutrophil elastase)

CC(C)(C)NC[C@H](O)COc1nsnc1N1CCOCC1 [TIMOLOL]
Not Active: IC50 [1] | IC50 (Calcitonin receptor) | IC50 (Substance-P receptor) | IC50 [2] | Ki [2] | IC50 [3] | IC50 (Neutrophil elastase)

CCS(=O)(=O)CCn1c([N+](=O)[O-])cnc1C [TINIDAZOLE]
Not Active: IC50 [1] | IC50 (Calcitonin receptor) | IC50 (Substance-P receptor) | IC50 [2] | Ki [2] | IC50 [3] | IC50 (Neutrophil elastase)

C[C@@H]1C[C@H]2[C@@H]3CCC4=CC(=O)C=C[C@]4(C)C3=CC[C@]2(C)[C@H]1C(=O)CN1CCN(c2cc(N3CCCC3)nc(N3CCCC3)n2)CC1 [TIRILAZAD]
Not Active: IC50 [1] | IC50 (Calcitonin receptor) | IC50 (Substance-P receptor) | IC50 [2] | Ki [2] | IC50 [3] | IC50 (Neutrophil elastase)

NC[C@H]1O[C@H](O[C@H]2[C@H](O)[C@@H](O[C@H]3O[C@H](CO)[C@@H](O)[C@H](N)[C@H]3O)[C@H](N)C[C@@H]2N)[C@H](N)C[C@@H]1O [TOBRAMYCIN]
Not Active: IC50 [1] | IC50 (Calcitonin receptor) | IC50 (Substance-P receptor) | IC50 [2] | Ki [2] | IC50 [3] | IC50 (Neutrophil elastase)

O=C(O)C(Cl)(Cl)Cl [TRICHLOROACETIC ACID]
Not Active: IC50 [1] | IC50 (Calcitonin receptor) | IC50 (Substance-P receptor) | IC50 [2] | Ki [2] | IC50 [3] | IC50 (Neutrophil elastase)

COc1ccc(CN2CCNCC2)c(OC)c1OC [TRIMETAZIDINE]
Not Active: IC50 [1] | IC50 (Calcitonin receptor) | IC50 (Substance-P receptor) | IC50 [2] | Ki [2] | IC50 [3] | IC50 (Neutrophil elastase)

CC(=O)O[C@H]1C[C@@H]2CC[C@@H]3[C@H](CC[C@@]4(C)[C@H]3C[C@H]([N+]3(C)CCCCC3)[C@@H]4OC(C)=O)[C@@]2(C)C[C@@H]1N1CCCCC1.[Br-] [VECURONIUM BROMIDE]
Not Active: IC50 [1] | IC50 (Calcitonin receptor) | IC50 (Substance-P receptor) | IC50 [2] | Ki [2] | IC50 [3] | IC50 (Neutrophil elastase)
